# Results from patent US11180573B2, “Extracellular matrix-producing composition using MAST4 gene and preparation method therefor” (priority 2017, dated 2021).
# Tested on: human primary chondrocytes
# Assay: TGF-β1 treatment of human primary chondrocytes, expression by RT-PCR and Western blotting
# Assay type: cell-based
# Protocol: In detail, the human primary chondrocytes of Example 4-1 were treated with TGF-β1, and an expression level thereof was measured by RT-PCR as in Examples 1-2 and 1-3 and Western blotting.
# [1] = co-treatment with TGF-β1 (5 ng/ml), compared with single treatment with TGF-β1, FIG. 9B
# [2] = TGF-β1 5 ng/ml for 24 hours, 48 hours, or 72 hours, FIG. 9
compound,measurement,setting,value
Cc1cccc(-c2[nH]c(CNc3ccccc3F)nc2-c2ccc3ncnn3c2)n1 [TEW-7197],Acan expression increased by TGF-β1,[1],suppressed
same,inhibitory effect on MAST4 expression (of TGF-β1),[1],decreased
TGF-β1: growth factor that reduces MAST4 expression in human chondrocytes,MAST4 expression,[2],suppressed
same,expression of extracellular matrix factors,[2],increased
